Like-named read-outs stand apart in the source and are kept apart here.
Key:
[1] = tested on: eqBuChE; settings: eqBuChE from horse serum; mean ± SEM, at least three experiments; read-out: IC50 BuChE; cited from earlier work
[2] = tested on: eeAChE; settings: eeAChE from electric eel, cited from earlier work; for IC50: mean ± SEM, at least three experiments
[3] = cited from earlier work
[4] = in vivo; settings: for exposure in the plasma, fold higher than CBD, L1, and L3: oral
Procedure: (§1) Animal experiments were conducted in accordance with the National Institutes of Health Laboratory Animal Care and Use Guidelines. Male SPF SD rats from the Animal Center of Anhui Medical University (Hefei, China) were used for the experiment. […] At each time point (0.5, 1, 2, 4, and 8 h) after administration, samples of brain, heart, kidney, liver, lung, and spleen were collected from each rat for tissue distribution study. While for pharmacokinetic study, the plasma samples were gathered from the suborbital vein at 5, 15, 30, and 45 min and 1, 2, 4, 8, and 12 h after oral administration. The maintenance and treatment procedures for experimental animals were approved by the Animal Care and Use Committee of Anhui Medical University (approval number: LLSC20190274). Room temperature was 22 ± 2 °C, using a light/dark (12: 12 h) cycle, the animals were free to consume food and water one day before the experiment.
(§2) An aliquot of 60 μL plasma sample was spiked with 60 µL aqueous ascorbic acid (0.1%) and 20 μL of IS working solution (300 ng/mL). After vortexing for 30 s, 400 µL MTBE was added to plasma sample for liquid–liquid extraction. The mixture was vigorously mixed for 10 min and centrifuged at 12,000 rpm at 4 °C for 5 min; approximately 400 µL of supernatant was transferred to a clean 1.5 mL centrifuge tube and dried under a gentle stream of nitrogen gas. Subsequently, the residue was reconstituted with 100 µL of MeOH/water (7: 3, v/v), vortex-mixed for 2 min, and followed by centrifugation at 12,000 rpm for 20 min. Finally, 20 μL of the supernatant was injected into the UPLC-HRMS system for measurement. The tissue sample (100 mg) was homogenized in normal saline solution (1 mL), 600 μL homogenate sample was spiked with 60 µL aqueous ascorbic acid (0.1%) and 50 μL of the IS working solution (1000 ng/mL), and 1.2 mL MTBE was added for extraction. Then, 1 mL of supernatant was dried and proceeded as plasma sample pretreatment (Figure S1).
(§3) Quantitative analysis using Dionex Ultimate 3000 chromatography hyphenated to Q-Exactive plus Orbitrap mass spectrometer system (Thermo Fisher Scientific, Waltham, MA, USA). The analytes were detected in Full MS/dd-MS^2 mode to choose the parent ion and optimize the retention time; then, we used the parallel reaction monitoring (PRM) mode through positive ionization condition for determination. Xcalibur 4.1 software (Thermo Fisher Scientific) was used for data acquisition and processing.
Chromatographic separation was achieved on a Shimadzu-pack GIST column (50 mm × 2.1 mm, 2 μm, Shimadzu Company, Kyoto, Japan). Binary mobile solvents consisted of water (containing 0.1% FA, v/v) (A) and acetonitrile (B), the gradient program was as follows: 0 min 60% A → 1 min 60% A → 1.5 min 20% A → 7 min 20% A → 7.1 min 60% A → 8.5 min 60% A. The flow rate was set at 0.30 mL/min and the column temperature was 40 °C. The typical source parameters were optimized as follows: spray voltage: 4500 V; capillary temperature: 320 °C; auxiliary gas heater temperature: 200 °C; pressure of sheath gas: 320 kPa; auxiliary gas: 50 kPa.
Phoenix/WinNonlin software (version 6.4; Pharsight, Mountain View, CA, USA) was used to calculate the AUC and other pharmacokinetic parameters in plasma or tissue for each drug in a non-compartmental model.

[5] = in vivo; settings: for Cmax / Kp / selectivity ratio: male, SD, rat, in vivo; for Cmax / Kp: po; for Cmax: 15 mg/kg; for Kp: AUCtissue/AUCplasma; for AUCbrain: brain; for AUCheart: heart; for AUCkidney: kidney; for AUCliver: liver; for AUClung: lung; for AUCspleen: spleen
Procedure: Drug exposure in tissue is calculated by drug exposure in the plasma and tissue/plasma distribution coefficient (Kp), as shown in Equation (1):Drug exposure in the tissue = drug exposure in the plasma × Kp(1) where drug exposure in the plasma and the tissue can be calculated by the drug concentration vs. time curve, and Kp values can be calculated by Ctissue/Cplasma or AUCtissue/AUCplasma. […] It is worth mentioning that Kp can be evaluated by the ratio of free fraction of drug candidate in plasma vs. in tissues in steady state. Nevertheless, this assessment is based on “free drug hypothesis” theory, which presumes that free drug concentration in tissue is close to that in plasma.
Dose escalation tests are always evaluated during clinical phase I/II trials, and MTD is constantly associated with drug exposure in certain toxicity-related organs. […] To evaluate the balance between efficacy and toxicity for drug candidates, drug tissue selectivity is a crucial parameter and defined as follows in Equation (2), where the sum of Ctissue or AUCtissue is total drug concentration or AUC in different tissues. Drug tissue selectivity = Ctissue/ΣCtissue or AUCtissue/ΣAUCtissue(2)
as §1, §2, §3
Chromatographic separation was achieved on a Shimadzu-pack GIST column (50 mm × 2.1 mm, 2 μm, Shimadzu Company, Kyoto, Japan).

[6] = male, SD, rat, in vivo, po, 15 mg/kg
[7] = rats, single intragastric 15 mg/kg, plasma

Row | SMILES | IC50 [1] [nM] | IC50 [2] [nM] | AUC [4, 6] [ng·h/mL] | AUC(0-inf) [4, 6] [ng·h/mL] | AUC(0-t) [4, 6] [ng·h/mL] | Cmax [4, 6] [ng/mL] | MRT last [4, 6] [h] | Tmax [4, 6] [h] | half-life [4, 6] [h] | CL [4, 7] [mL/min/kg] | Vd [4, 7] [L/kg] | further results
1 | C=C(C)[C@@H]1CCC(C)=C[C@H]1c1c(O)cc(CCCCC)cc1O [CBD, Cannabidiol, reference compound] | 670 ± 60 | 17100 ± 2430 | 158 | 168 ± 11.5 | 158 ± 10.6 | 48.9 ± 11 | 2.84 ± 0.23 | 1.2 ± 0.45 | 3.7 ± 1.26 | 1492 ± 107 | 474.16 ± 155.23 | Tmax (reported values) [3]: 0 to 4 h; t1/2 (reported values) [3]: 1.4 to 10.9 h
2 | C=C(C)C1CCC(C)=CC1c1c(O)cc(CCCCC)cc1OC(=O)NC (stereo not shown) [Compound L1] | 128 ± 22 | 18900 ± 1110 | 191 | 197 ± 58 | 191 ± 58.7 | 120 ± 15.9 | 2.05 ± 0.47 | 0.22 ± 0.07 | 2.7 ± 1.27 | 1353 ± 361.8 | 319.94 ± 171.55 | metabolism to CBD observed in plasma ([4]; rats, intragastric administration): can be metabolized to produce CBD
3 | C=C(C)C1CCC(C)=CC1c1c(O)cc(CCCCC)cc1OC(=O)N(C)CC (stereo not shown) [Compound L2] | 77 ± 5 | 15000 ± 1020 | – | – | – | 127 ± 23.6 | 3.44 ± 0.22 | 1.8 ± 0.45 | 2.64 ± 0.45 | 434.5 ± 74.8 | 99.38 ± 23.95 | Cmax [5]: 56 ng/g; Kp ([5]; Kp brain, rats): 0.42; Kp ([5]; Kp heart, rats): 2.63; Kp ([5]; Kp kidney, rats): 5.51; Kp ([5]; Kp liver, rats): 5.3; Kp ([5]; Kp lung, rats): 3.27; Kp ([5]; Kp spleen, rats): 2.41; selectivity ratio ([5]; tissue selectivity in the brain, fold higher than L4, AUCtissue/ΣAUCtissue, L2 vs L4): 21; selectivity ratio ([5]; tissue selectivity in the kidney, fold lower than L4, AUCtissue/ΣAUCtissue, L2 vs L4): 1.2; selectivity ratio ([5]; tissue selectivity in the liver, fold lower than L4, AUCtissue/ΣAUCtissue, L2 vs L4): 1.8; AUCbrain ([5]; rats, oral 15 mg/kg): 213.8 ng·h/g; AUCheart ([5]; rats, oral 15 mg/kg): 1331.9 ng·h/g; AUCkidney ([5]; rats, oral 15 mg/kg): 2790.2 ng·h/g; AUCliver ([5]; rats, oral 15 mg/kg): 2684.5 ng·h/g; AUClung ([5]; rats, oral 15 mg/kg): 1655.0 ng·h/g; AUCspleen ([5]; rats, oral 15 mg/kg): 1220.9 ng·h/g; exposure in the kidney, fold lower than L4 ([5]; rats, oral 15 mg/kg, L2 vs L4): 2.8 fold; exposure in the liver, fold lower than L4 ([5]; rats, oral 15 mg/kg, L2 vs L4): 1.8 fold; brain concentration relative to L4 ([5]; rats, oral, L2 vs L4): fivefold higher; exposure in the plasma, fold higher than CBD, L1, and L3 ([4]; rats): > 3 fold
4 | C=C(C)C1CCC(C)=CC1c1c(O)cc(CCCCC)cc1OC(=O)N1CCCC1 (stereo not shown) [Compound L3] | 390 ± 40 | – | 182 | 200 ± 32.5 | 182 ± 13.9 | 60 ± 8.63 | 2.72 ± 0.6 | 0.95 ± 0.11 | 3.09 ± 1.52 | 1273 ± 194.7 | 320.94 ± 106.75 | –
5 | C=C(C)C1CCC(C)=CC1c1c(O)cc(CCCCC)cc1OC(=O)N(C)Cc1ccc(Cl)cc1 (stereo not shown) [Compound L4] | 5.3 ± 1.2 | – | – | – | – | 211 ± 30.7 | 2.38 ± 0.21 | 0.8 ± 0.11 | 2.17 ± 0.19 | 483.2 ± 100 | 91.52 ± 22.81 | Inhibition Rate % at 20 µM, AChE ([2]; at 20 µM): 21.4 ± 2.8%; Cmax [5]: 19 ng/g; Kp ([5]; Kp brain, rats): 0.088; Kp ([5]; Kp heart, rats): 15.1; Kp ([5]; Kp kidney, rats): 15.7; Kp ([5]; Kp liver, rats): 10.1; Kp ([5]; Kp lung, rats): 15.1; Kp ([5]; Kp spleen, rats): 11.7; AUCbrain ([5]; rats, oral 15 mg/kg): 43.2 ng·h/g; AUCheart ([5]; rats, oral 15 mg/kg): 7431.3 ng·h/g; AUCkidney ([5]; rats, oral 15 mg/kg): 7723.4 ng·h/g; AUCliver ([5]; rats, oral 15 mg/kg): 4951.2 ng·h/g; AUClung ([5]; rats, oral 15 mg/kg): 7421.8 ng·h/g; AUCspleen ([5]; rats, oral 15 mg/kg): 5773.9 ng·h/g; exposure in the plasma, fold higher than CBD, L1, and L3 ([4]; rats): > 3 fold
6 | C=C(C)[C@@H]1CCC(C)=C[C@H]1c1c(O)cc(CCCCC)cc1O [L1→CBD] | – | – | – | – | – | – | – | – | – | 1718.8 ± 707.3 | 577.46 ± 442.26 | AUC0-T [4, 7]: 165.91 ± 87.56 ng·h/mL; AUC0-∞ [4, 7]: 172.51 ± 84.52 ng·h/mL; Cmax [4, 7]: 94.59 ± 27.06 ng/mL; MRT0-T [4, 7]: 2.21 ± 0.42 h; Tmax [4, 7]: 0.27 ± 0.15 h; t1/2 [4, 7]: 3.43 ± 1.64 h
7 | CNC(=O)Oc1ccc2c(c1)[C@]1(C)CCN(C)[C@@H]1N2C [physostigmine] | – | – | – | – | – | – | – | – | – | – | – | drug concentration in brains after oral vs intramuscular administration, times less [3]: 350 times; drug concentration in plasma after oral vs intramuscular administration, times less [3]: 200 times; bioavailability ([3]; first-pass metabolism): 2%
8 | CCN(C)C(=O)Oc1cccc([C@H](C)N(C)C)c1 [rivastigmine, reference compound] | – | – | – | – | – | – | – | – | – | – | – | bioavailability [3]: 36–40%
